These results are taken from patent publication US11773078B2, “Furin inhibitors” (Glaxosmithkline Intellectual Property Development Limited, priority 2018, dated 2023).

The target in test [1] is T1, Furin (108-574-Tev-Flag-His) enzyme (Homo sapiens, UniProt P09958).
T1 construct: Furin (108-574-Tev-Flag-His) enzyme was expressed and purified from CHO cells; TEV cleavage site (C); FLAG (C); His (C); made in house; host or cells: CHO cells
Put plainly: Furin enzyme assay. Type of test: biochemical. The protocol: Reactions were performed in black 384-well polystyrene low volume plates (Greiner). Furin (108-574-Tev-Flag-His) enzyme was expressed and purified from CHO cells. Compounds of the invention were dissolved in DMSO (1.0 mM) and serially diluted 1 to 3 with DMSO through eleven dilutions to provide a final compound concentration range from 0.00017 to 10 μM. 0.05 μL of each concentration was transferred to the corresponding well of an assay plate, and then 5 μL of 40 pM furin enzyme in assay buffer (100 mM HEPES pH7.5, 1 mM CaCl2 and 0.005% Triton X-100) was added using a Multidrop Combi (Thermo) to the compound plates, and mixed by inversion. […] The plates were centrifuged at 500×g for 1 minute and incubated at room temperature for two hours. Enzyme inhibition is then quantified using an Envision instrument (PerkinElmer).
Data were analyzed using AbaseXE 7.3, utilizing a four-parameter curve fit equation. The following values were used to define limits and/or constraints for each of the four parameters: • Minimum—limit −10 to 10 • Maximum—90 to 110 • Slope—limit 0.5 to 2.0 • pXC50 confidence interval—10
Raw counts obtained from the respective plate reader (Perkin Elmer) were captured for data analysis. Curves were generated using the equation: Y=A+[(B−A)/(1+(10^C/x)^D)] • where: A=minimum response • B=maximum response • C=log 10*XC50 • D=slope factor • x=log 10 compound concentration [M]
The results were recorded as pXC50 values (−C in the above equation)

Test [2] has as its target T2, furin (endogenous protease) in U20S cells (Homo sapiens, UniProt P09958).
T2 construct: the endogenous protease cleaves GFP; endogenous in cells; host or cells: U2OS cells transduced with a BacMam reporter
In words: Furin cell-based assay (image-based, Golgi-targeted GFP with BMP10 furin/PCSK cleavage site).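 Further: Read-out is mean GFP fluorescence of Golgi puncta per cell by high-content imaging, retained when furin inhibited, over an eleven-point 0.00017–10 µM series, four-parameter fit.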 The note with it: 24-hour incubation, read-out: furin golgi cell pXC50 (converted).

Where a name gives a salt, the structure may show the parent alone.

T1 sequence (P09958 108-574): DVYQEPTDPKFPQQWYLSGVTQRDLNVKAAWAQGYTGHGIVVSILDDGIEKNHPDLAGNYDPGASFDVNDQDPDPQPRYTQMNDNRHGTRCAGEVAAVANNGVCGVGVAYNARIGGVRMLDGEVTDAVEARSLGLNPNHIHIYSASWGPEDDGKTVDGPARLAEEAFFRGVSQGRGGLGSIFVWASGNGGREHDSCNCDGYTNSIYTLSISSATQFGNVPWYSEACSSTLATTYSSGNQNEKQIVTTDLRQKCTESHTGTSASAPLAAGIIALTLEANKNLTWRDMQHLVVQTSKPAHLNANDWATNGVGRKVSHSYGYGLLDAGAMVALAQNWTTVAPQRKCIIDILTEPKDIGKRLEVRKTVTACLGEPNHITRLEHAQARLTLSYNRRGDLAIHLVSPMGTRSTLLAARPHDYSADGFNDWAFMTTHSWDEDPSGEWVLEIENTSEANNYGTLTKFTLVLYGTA
T2 sequence (P09958 108-794): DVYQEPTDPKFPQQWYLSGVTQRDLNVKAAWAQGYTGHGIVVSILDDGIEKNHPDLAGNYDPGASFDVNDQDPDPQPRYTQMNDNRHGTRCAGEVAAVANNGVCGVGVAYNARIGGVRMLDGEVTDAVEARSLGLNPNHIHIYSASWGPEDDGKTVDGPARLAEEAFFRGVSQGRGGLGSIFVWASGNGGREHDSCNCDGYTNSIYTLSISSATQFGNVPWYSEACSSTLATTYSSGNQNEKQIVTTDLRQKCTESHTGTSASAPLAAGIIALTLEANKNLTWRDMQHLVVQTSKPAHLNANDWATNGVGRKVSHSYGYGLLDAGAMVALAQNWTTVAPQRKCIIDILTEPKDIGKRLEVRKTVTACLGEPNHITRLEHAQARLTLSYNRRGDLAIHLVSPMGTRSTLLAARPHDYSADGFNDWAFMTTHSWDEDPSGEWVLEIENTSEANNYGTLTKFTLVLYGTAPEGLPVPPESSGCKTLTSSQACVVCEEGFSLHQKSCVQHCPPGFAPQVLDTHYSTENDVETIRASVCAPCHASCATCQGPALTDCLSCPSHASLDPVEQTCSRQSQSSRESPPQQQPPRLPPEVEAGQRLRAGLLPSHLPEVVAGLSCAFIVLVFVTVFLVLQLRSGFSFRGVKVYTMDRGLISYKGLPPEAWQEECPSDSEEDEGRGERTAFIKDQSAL

Regarding `CC(=O)NCC1CCN(Cc2cc(Oc3ccc(N4CCN(C(=O)CCC(=O)O)CC4)nc3)nc(-c3cc(Cl)cc(Cl)c3)c2)CC1` [Example 33, 4-(4-(5-((4-((4-(Acetamidomethyl)piperidin-1-yl)methyl)-6-(3,5-dichlorophenyl)pyridin-2-yl)oxy)pyridin-2-yl)piperazin-1-yl)-4-oxobutanoic acid], the “furin enzyme pIC50” value in test [1] is 8.5. For the same molecule, the EC50 in test [2] was 39.8 nM.
Turning to `CC(=O)NCC1CCN(Cc2cc(Oc3ccc(N4CCN(CC5(CO)CC5)CC4)nc3)nc(-c3cc(Cl)cc(Cl)c3)c2)CC1` [Example 34, N-((1-((2-(3,5-Dichlorophenyl)-6-((6-(4-((1-(hydroxymethyl)cyclopropyl)methyl)piperazin-1-yl)pyridin-3-yl)oxy)pyridin-4-yl)methyl)piperidin-4-yl)methyl)acetamide], the “furin enzyme pIC50” value in test [1] came to 9.4. The EC50 in test [2] was 5.01 nM.
Turning to `CC(=O)NCC1CCN(Cc2cc(Oc3ccc(N4CCN(CC5(O)CC5)CC4)nc3)nc(-c3cc(Cl)cc(Cl)c3)c2)CC1` [Example 35, N-((1-((2-(3,5-Dichlorophenyl)-6-((6-(4-((1-hydroxycyclopropyl)methyl)piperazin-1-yl)pyridin-3-yl)oxy)pyridin-4-yl)methyl)piperidin-4-yl)methyl)acetamide], in test [1], the “furin enzyme pIC50” value is reported as 8.8. Besides, the EC50 in test [2] is 3.16 nM.
Taken in the same sequence, the figures for `CCNC(=O)CC1CCN(Cc2cc(Oc3ccc(N4CCN(CCCS(C)(=O)=O)CC4)nc3)nc(-c3cc(Cl)cc(Cl)c3)c2)CC1` [Example 36, 2-(1-((2-(3,5-Dichlorophenyl)-6-((6-(4-(3-(methylsulfonyl)propyl)piperazin-1-yl)pyridin-3-yl)oxy)pyridin-4-yl)methyl)piperidin-4-yl)-N-ethylacetamide] were 9 and 5.01 nM.
Regarding `CNCc1cc(Oc2cnc(N3CCN(CCCS(C)(=O)=O)CC3)nc2)nc(-c2cc(Cl)cc(Cl)c2)c1` [Example 37, 1-(2-(3,5-Dichlorophenyl)-6-((2-(4-(3-(methylsulfonyl)propyl)piperazin-1-yl)pyrimidin-5-yl)oxy)pyridin-4-yl)-N-methylmethanamine], the “furin enzyme pIC50” value in test [1] was determined as 8.5. For the same molecule, the EC50 in test [2] is 12.6 nM.
For the molecule `NS(=O)(=O)CC1CCN(Cc2cc(Oc3ccc(N4CCN(CCC(=O)O)CC4)nc3)nc(-c3cc(Cl)cc(Cl)c3)c2)CC1` [Example 38, 3-(4-(5-((6-(3,5-Dichlorophenyl)-4-((4-(sulfamoylmethyl)piperidin-1-yl)methyl)pyridin-2-yl)oxy)pyridin-2-yl)piperazin-1-yl)propanoic acid], in test [1], the “furin enzyme pIC50” value is on record as 9. For the same molecule, the EC50 in test [2] was 126 nM.
Regarding `CS(=O)(=O)CC1CCN(Cc2cc(Oc3ccc(N4CCN(CCC(=O)O)CC4)nc3)nc(-c3cc(Cl)cc(Cl)c3)c2)CC1` [Example 39, 3-(4-(5-((6-(3,5-Dichlorophenyl)-4-((4-((methylsulfonyl)methyl)piperidin-1-yl)methyl)pyridin-2-yl)oxy)pyridin-2-yl)piperazin-1-yl)propanoic acid], the “furin enzyme pIC50” value in test [1] came to 8.3. In test [2], the EC50 is 79.4 nM.
Turning to `CNC(=O)NCC1CCN(Cc2cc(Oc3ccc(N4CCN(CCO)CC4)nc3)nc(-c3cc(Cl)cc(Cl)c3)c2)CC1` [Example 40, 1-((1-((2-(3,5-Dichlorophenyl)-6-((6-(4-(2-hydroxyethyl)piperazin-1-yl)pyridin-3-yl)oxy)pyridin-4-yl)methyl)piperidin-4-yl)methyl)-3-methylurea], in test [1], the “furin enzyme pIC50” value was 7.6. In addition, the EC50 in test [2] was 10 nM.
Take `CC(=O)NCC1CCN(Cc2cc(Oc3ccc(N)cc3)cc(-c3cc(Cl)cc(Cl)c3)c2)CC1` [Example 42, N-((1-((5-(4-Aminophenoxy)-3′,5′-dichloro-[1,1′-biphenyl]-3-yl)methyl)piperidin-4-yl)methyl)acetamide]: in test [1], the “furin enzyme pIC50” value was 7.7. Also, the EC50 in test [2] is 316 nM.
Take `CS(=O)(=O)NCC1CCN(Cc2cc(Oc3ccc(N4CCN(CCC(=O)O)CC4)nc3)nc(-c3cc(Cl)cc(Cl)c3)c2)CC1` [Example 44]: in test [1], the “furin enzyme pIC50” value is 9.5. For the same molecule, the EC50 in test [2] was 25.1 nM.
Turning to `CC(=O)NCC1CCN(Cc2cc(Oc3cnc(N)c(F)c3)cc(-c3cc(Cl)cc(Cl)c3)c2)CC1` [Example 46, N-((1-((5-((6-Amino-5-fluoropyridin-3-yl)oxy)-3′,5′-dichloro-[1,1′-biphenyl]-3-yl)methyl)piperidin-4-yl)methyl)acetamide, 2 hydrochloride], in test [1], the “furin enzyme pIC50” value was 7. The EC50 in test [2] was 501 nM.
Taken in the same sequence, the figures for `CNC(=O)NCC1CCN(Cc2cc(Oc3cnc(N4CCN(CCO)CC4)nc3)nc(-c3cc(Cl)cc(Cl)c3)c2)CC1` [Example 47, 1-((1-((2-(3,5-Dichlorophenyl)-6-((2-(4-(2-hydroxyethyl)piperazin-1-yl)pyrimidin-5-yl)oxy)pyridin-4-yl)methyl)piperidin-4-yl)methyl)-3-methylurea, 4 hydrochloride] were 8.9 and 3.98 nM.
Regarding `CNC(=O)NCC1CCN(Cc2cc(Oc3cnc(N4CCN(CCCS(N)(=O)=O)CC4)nc3)nc(-c3cc(Cl)cc(Cl)c3)c2)CC1` [Example 48, 3-((4-(5-((6-(3,5-Dichlorophenyl)-4-((4-((3-methylureidolmethyl)piperidin-1-yl)methyl)pyridin-2-yl)oxy)pyrimidin-2-yl)piperazin-1-yl)propane-1-sulfonamide. 4 hydrochloride], the “furin enzyme pIC50” value in test [1] was found to be 9.4. Moreover, the EC50 in test [2] is 2.51 nM.
With `COC(=O)NCC1CCN(Cc2cc(Oc3cnc(N4CCNCC4)nc3)nc(-c3cc(Cl)cc(Cl)c3)c2)CC1` [Example 49, Methyl((1-((2-(3,5-dichlorophenyl)-6-((2-(piperazin-1-yl)pyrimidin-5-yl)oxy)pyridin-4-yl)methyl)piperidin-4-yl)methyl)carbamate, 4 hydrochloride], the “furin enzyme pIC50” value in test [1] came to 9.1. Further, in test [2], the EC50 is 20 nM.
Taken in the same sequence, the figures for `CNCc1cc(Oc2ccc(N3CCN(CCC(=O)O)CC3)nc2)nc(-c2cc(Cl)cc(Cl)c2)c1` [Example 50, 3-(4-(5-((6-(3,5-Dichlorophenyl)-4-((methylamino)methyl)pyridin-2-yl)oxy)pyridin-2-yl)piperazin-1-yl)propanoic acid, 4 hydrochloride] were 8.1 and 126 nM.
For the molecule `COC(=O)NCC1(F)CCN(Cc2cc(Oc3cnc(N4CCN(CCC(=O)O)CC4)nc3)nc(-c3cc(Cl)cc(Cl)c3)c2)CC1` [Example 51, 3-((4-(5-((6-(3,5-Dichlorophenyl)-4-((4-fluoro-4-(((methoxycarbonyl)amino)methyl)piperidin-1-yl)methyl)pyridin-2-yl)oxy)pyrimidin-2-yl)piperazin-1-yl)propanoic acid, 4 hydrochloride], the “furin enzyme pIC50” value in test [1] is on record as 8.2. Moreover, the EC50 in test [2] is 158 nM.
The like results for `CN1CCN(c2ncc(Oc3cc(CN4CCC(CCO)CC4)cc(-c4cc(Cl)cc(Cl)c4)n3)cn2)CC1` [Example 52, 2-(1-((2-(3,5-Dichlorophenyl)-6-((2-(4-methylpiperazin-1-yl)pyrimidin-5-yl)oxy)pyridin-4-yl)methyl)piperidin-4-yl)ethanol] were, in that order, 9.8 and 1.26 nM.
Taken in the same sequence, the figures for `CN1CCN(c2ncc(Oc3cc(CN4CCC(OCC(=O)O)CC4)cc(-c4cc(Cl)cc(Cl)c4)n3)cn2)CC1` [Example 53, 2-((1-((2-(3,5-Dichlorophenyl)-6-((2-(4-methylpiperazin-1-yl)pyrimidin-5-yl)oxy)pyridin-4-yl)methyl)piperidin-4-yl)oxy)acetic acid, 4 hydrochloride] were 8.7 and 15.8 nM.
On to `NC(=O)OCCN1CCN(Cc2cc(Oc3cnc(N4CCN(CCC(=O)O)CC4)nc3)nc(-c3cc(Cl)cc(Cl)c3)c2)CC1` [Example 54, 3-(4-(5-((4-((4-(2-(Carbamoyloxy)ethyl)piperazin-1-yl)methyl)-6-(3,5-dichlorophenyl)pyridin-2-yl)oxy)pyrimidin-2-yl)piperazin-1-yl)propanoic acid, 5 hydrochloride], for which the “furin enzyme pIC50” value in test [1] came to 8.2. Besides, the EC50 in test [2] is 158 nM.
Regarding `NC(=O)OCCN1CCN(Cc2cc(Oc3ccc(N4CCN(CCC(=O)O)CC4)nc3)nc(-c3cc(Cl)cc(Cl)c3)c2)CC1` [Example 55, 3-(4-(5-((4-((4-(2-(carbamoyloxy)ethyl)piperazin-1-yl)methyl)-6-(3,5-dichlorophenyl)pyridin-2-yl)oxy)pyridin-2-yl)piperazin-1-yl)propanoic acid], the “furin enzyme pIC50” value in test [1] is on record as 8.2. For the same molecule, in test [2], the EC50 is 251 nM.
